Reference: US4889872A, “2,3,5,6-Tetrafluorobenzyl (+) 1r-trans-2,2-dimethyl-3-(2,2-dichlorovinyl)-cyclopropanecarboxylate” (priority 1987, dated 1989)
Where two headings read alike, the source gives them in different places.

Experiments:
insects [1] = experiment: insecticidal / biological action (general statements); assay type: in vivo
[2] = system: Musca domestica, resistant; experiment: Aerosol Test (knock-down effect on resistant flies, 30 m^3 room); assay type: in vivo
Description: In each experiment, 3 wire cages each containing 20 resistant male Musca domestica are suspended in rooms of volume 30 m^3. The room is then sprayed using spray cans containing active compounds I, II, III and IV or active compound mixtures I+IV; II+IV; V+VI; V+VI+I and V+VI+II according to formulation Examples 1-9.
The amount of spray applied per spray can is 12.4 g. After spraying, the rooms are sealed and the action of the spray mist on the flies observed continuously through windows. The number of minutes after which 50 and 95% of the animals had fallen onto their backs (knock-down effect) is recorded. After a tesst duration of 1 hour, the percentage of knocked-downanimals is subsequently determined. The table below contains the values determined.

rats [3] = conditions: cited from earlier work
Aedes aegypti = experiment: Vapor test (knock-down action on mosquitoes, electroevaporator ovens); assay type: in vivo; conditions: compound II 10 mg
Description: Small cellulose tablets containing active compound according to formulation examples Nos. 9 and 10 are placed on the hotplate of small electroevaporator ovens, producing temperatures of 130° and 160° C. The instruments ae connected to the mains via a socket and heated up in living rooms of equal size and equally equipped.
During the experiment, one window in the rooms remained open to the outside in the tilted position. Immediately after switching on the ovens, 2 wire baskets each containing 20 mosquitoes of the Aedes aegypti species, 3-4 days old, were hung in each room. The knock-down action on the mosquitoes was checked half or one hour later. After the oven had burnt for a longer period, fresh mosquitoes were again introduced in the same way into the rooms at certain times, and the activity was again tested after half or one hour. The temperature of the heating oven, the amounts of reactive compounds, the heating duration, the test time and the knockdown effect can be seen from the table below.
(%Knock-down: percentage of mosquitoes which have fallen onto their backs).
In the present test, active compounds I (according to the invention) and II ((-)1R-trans-isomer of fenfluthrin) were employed.

rats [4] = experiment: oral toxicity to mammals (LD50, rats); assay type: in vivo
[5] = oral toxicity to mammals (LD50, rats); assay type: in vivo; conditions: rat, in vivo; male rats; oral
flies = conditions: versus mixture of equal parts of the 2,3,5,6-tetrafluorobenzyl and 3,5,6-trifluorobenzyl ester; cited from earlier work
insects [6] = conditions: prior art, ester alone; cited from earlier work
[7] = compound I 10 mg, oven 130 °C, animals introduced after 0 h heating, residence 1 h
[8] = compound I 10 mg, oven 130 °C, animals introduced after 8 h heating, residence 1 h
[9] = compound I 10 mg, oven 130 °C, animals introduced after 26 h heating, residence 1 h
[10] = compound I 10 mg, oven 130 °C, animals introduced after 50 h heating, residence 1 h
[11] = compound I 10 mg, oven 160 °C, animals introduced after 0 h heating, residence 1 h
[12] = compound I 10 mg, oven 160 °C, animals introduced after 8 h heating, residence 1 h
[13] = compound I 10 mg, oven 160 °C, animals introduced after 26 h heating, residence 1 h
[14] = compound I 20 mg, oven 130 °C, animals introduced after 0 h heating, residence 1 h
[15] = compound I 20 mg, oven 130 °C, animals introduced after 8 h heating, residence 1 h
[16] = compound I 20 mg, oven 130 °C, animals introduced after 26 h heating, residence 1 h
[17] = compound I 20 mg, oven 130 °C, animals introduced after 50 h heating, residence 1 h
[18] = compound I 20 mg, oven 160 °C, animals introduced after 0 h heating, residence 1 h
[19] = compound I 20 mg, oven 160 °C, animals introduced after 8 h heating, residence 1 h
[20] = compound I 20 mg, oven 160 °C, animals introduced after 28 h heating, residence 1 h
[21] = compound I 30 mg, oven 130 °C, animals introduced after 0 h heating, residence 0.5 h
[22] = compound I 30 mg, oven 130 °C, animals introduced after 8 h heating, residence 0.5 h
[23] = compound I 30 mg, oven 130 °C, animals introduced after 26 h heating, residence 0.5 h
[24] = compound I 30 mg, oven 130 °C, animals introduced after 50 h heating, residence 0.5 h
[25] = compound I 30 mg, oven 160 °C, animals introduced after 0 h heating, residence 0.5 h
[26] = compound I 30 mg, oven 160 °C, animals introduced after 8 h heating, residence 0.5 h
[27] = compound I 30 mg, oven 160 °C, animals introduced after 28 h heating, residence 0.5 h
[28] = compound I 30 mg, oven 160 °C, animals introduced after 32 h heating, residence 0.5 h

Compound | 50% knock-down after minutes ([2]; 5 mg/30 m^3) | 95% knock-down after minutes ([2]; 5 mg/30 m^3) | % knock-down after 1 hour ([2]; 5 mg/30 m^3, 1 hour) | % knock-down (Aedes aegypti; [7]) | % knock-down (Aedes aegypti; [8]) | % knock-down (Aedes aegypti; [9]) | % knock-down (Aedes aegypti; [10]) | % knock-down (Aedes aegypti; [11]) | % knock-down (Aedes aegypti; [12]) | % knock-down (Aedes aegypti; [13]) | % knock-down (Aedes aegypti; [14]) | % knock-down (Aedes aegypti; [15]) | % knock-down (Aedes aegypti; [16]) | % knock-down (Aedes aegypti; [17]) | % knock-down (Aedes aegypti; [18]) | % knock-down (Aedes aegypti; [19]) | % knock-down (Aedes aegypti; [20]) | % knock-down (Aedes aegypti; [21]) | % knock-down (Aedes aegypti; [22]) | % knock-down (Aedes aegypti; [23]) | other results
CC1(C)C(C=C(Cl)Cl)C1C(=O)OCc1c(F)c(F)cc(F)c1F (racemic) [Active compound III, tetrafluorobenzyl cis/trans-2,2-dimethyl-3-(2,2-dichlorovinyl)-cyclopropanecarboxylate] | 38 min | 52 min | 97% | – | – | – | – | – | – | – | – | – | – | – | – | – | – | – | – | – | biological action (insects [1]; compared with tetrafluorobenzyl (+)1R-trans ester according to the invention): lower biological action; oral LD50 (rats [3]; male rats): 10 to 25 mg/kg
CC1(C)[C@H](C=C(Cl)Cl)[C@H]1C(=O)OCc1c(F)c(F)cc(F)c1F [Active compound I, 2,3,5,6-Tetrafluoro-benzyl (+)1R-trans-2,2-dimethyl-3-(2,2-dichlorovinyl)-cyclopropanecarboxylate] | 22 min | 47 min | 96% | 100% | 100% | 100% | 85% | 100% | 100% | 55% | 100% | 100% | 100% | 100% | 100% | 100% | 100% | 97% | 100% | 100% | % knock-down (Aedes aegypti; [24]): 92%; % knock-down (Aedes aegypti; [25]): 100%; % knock-down (Aedes aegypti; [26]): 100%; % knock-down (Aedes aegypti; [27]): 100%; % knock-down (Aedes aegypti; [28]): 100%; insecticidal action (insects [1]; compared to pentafluorobenzyl (-)1R-trans ester, at the same or an only slightly higher dosage): comparable insecticidal action; 50% knock-down after minutes ([2]; 7.5 mg/30 m^3): 18 min; 95% knock-down after minutes ([2]; 7.5 mg/30 m^3): 33 min; % knock-down after 1 hour ([2]; 7.5 mg/30 m^3, 1 hour): 99%; therapeutic index (rats [4]; gap between effective dose for the pest and toxicity to mammals): surprisingly favorable therapeutic index; toxicity to mammals lower than that of pentafluorobenzyl (-)1R-trans ester (rats [4]; ratio versus pentafluorobenzyl (-)1R-trans-2,2-dimethyl-3-(2,2-dichlorovinyl)-cyclopropanecarboxylate): 50 times; toxicity to mammals lower than that of tetrafluorobenzyl cis/trans ester (rats [4]; ratio versus tetrafluorobenzyl cis/trans-2,2-dimethyl-3-(2,2-dichlorovinyl)-cyclopropanecarboxylate): more than 250 times; LD50 [5]: > 5000 mg/kg
CC1(C)[C@H](C=C(Cl)Cl)[C@H]1C(=O)OCc1c(F)c(F)c(F)c(F)c1F [Active compound II, pentafluorobenzyl (-)1R-trans-2,2-dimethyl-3-(2,2-dichlorovinyl)-cyclopropanecarboxylate] | 19 min | 37 min | 99% | 100% | 100% | 100% | 97% | 100% | 100% | 40% | 100% | 100% | 100% | 95% | 100% | 100% | 92% | 65% | 100% | 97% | % knock-down (Aedes aegypti; [24]): 75%; % knock-down (Aedes aegypti; [25]): 45%; % knock-down (Aedes aegypti; [26]): 100%; % knock-down (Aedes aegypti; [27]): 92%; % knock-down (Aedes aegypti; [28]): 47%; oral LD50 (rats [3]; rats): 90 to 105 mg/kg
COP(=O)(OC)OC=C(Cl)Cl [Active compound IV, dichlorvos] | – | – | – | – | – | – | – | – | – | – | – | – | – | – | – | – | – | – | – | – | % knock-down after 1 hour ([2]; 124 mg/30 m^3, 1 hour): 22%
CC1(C)C(C=C(Cl)Cl)C1C(=O)OCc1c(F)c(F)c(F)c(F)c1F (stereo not shown) [pentafluorobenzyl ester] | – | – | – | – | – | – | – | – | – | – | – | – | – | – | – | – | – | – | – | – | amount that killed flies in the same time (flies): only a fifteenth of it killed flies in the same time
CC1(C)C(C=C(Cl)Cl)C1C(=O)OCc1c(F)c(F)cc(F)c1F (stereo not shown) [tetrafluorobenzyl ester] | – | – | – | – | – | – | – | – | – | – | – | – | – | – | – | – | – | – | – | – | insecticidal action (insects [6]): good insecticidal action
